From the NIST ThermoML archive (doi:10.1021/je700371w)

Settings: Liquid, Closed cell (Static) method

O [water]
Settings	vapor or sublimation pressure [kPa]
297.95 K	3.14
303.85 K	4.41
309.05 K	5.93
313.25 K	7.44
318.75 K	9.86
322.95 K	12.2
329.35 K	16.71
333.45 K	20.18
338.55 K	25.51
342.85 K	30.8
348.25 K	38.66
353.65 K	48.42
358.35 K	58.2
362.95 K	69.67
368.45 K	85.35
371.75 K	96.28
373.25 K	101.56
375.75 K	111.23

Cc1cccnc1N [2-amino-3-methylpyridine]
Settings	vapor or sublimation pressure [kPa]
328.7 K	0.098
329.84 K	0.108
336.23 K	0.165
344.13 K	0.271
349.18 K	0.368
354.89 K	0.515
357.64 K	0.598
359.93 K	0.69
363.55 K	0.82
368.61 K	1.08
374.67 K	1.47
387.23 K	2.67
390.85 K	3.13
398.46 K	4.32
405.57 K	5.82
411.35 K	7.34
415.63 K	8.67
421.5 K	10.75
425.85 K	12.61
428.75 K	13.95
431.43 K	15.29
435.66 K	17.74
439.42 K	20.12
443.51 K	23.01
447.94 K	26.5
448.95 K	27.3
450.76 K	28.88
451.84 K	29.81
454.19 K	32.09
455.25 K	33.15
456.78 K	34.61
457.95 K	36.08
460.15 K	38.48
461.72 K	40.22
469.63 K	50.38
478.22 K	63.87
484.84 K	76.42
490.45 K	87.65
495.13 K	99.74
496.05 K	101.44
497.73 K	105.38
498.8 K	108.53
499.88 K	111.35
